# Test results from patent publication US8952024B2, “Herbicidal pyrimidone derivatives” (E I du Pont de Nemours and Company, priority 2009, dated 2015).
# What was measured:
# Assay in all cases: Test D pre-/postemergence plant response
# Assay type in all cases: in vivo
# [1] = tested on: Italian ryegrass (Lolium multiflorum)
# Summary of the method: (§1)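 Both preemergence and postemergence treatments were made at the same time, with the compound in a non-phytotoxic, surfactant-containing solvent mixture. Plants grew in a greenhouse for 14–21 days before visual evaluation, scored from 0 (no effect) to 100 (complete control).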
# [2] = tested on: Surinam grass (Brachiaria decumbens)
# Summary of the method: as §1
# [3] = tested on: barnyardgrass (Echinochloa crus-galli)
# Summary of the method: as §1
# [4] = tested on: black mustard (Brassica nigra)
# Summary of the method: as §1
# [5] = tested on: chickweed (common chickweed, Stellaria media)
# Summary of the method: as §1
# [6] = tested on: goosegrass (Eleusine indica)
# Summary of the method: as §1
# [7] = tested on: green foxtail (Setaria viridis)
# Summary of the method: as §1
# [8] = tested on: groundsel (common groundsel, Senecio vulgaris); conditions: Postemergence
# Summary of the method: as §1
# [9] = tested on: guineagrass (Panicum maximum)
# Summary of the method: as §1
# [10] = tested on: johnsongrass (Sorghum halepense)
# Summary of the method: as §1
# [11] = tested on: kochia (Kochia scoparia)
# Summary of the method: as §1
# [12] = tested on: large crabgrass (Digitaria sanguinalis)
# Summary of the method: as §1
# [13] = tested on: morningglory (pitted morningglory, Ipomoea lacunosa)
# Summary of the method: as §1
# [14] = tested on: nutsedge (purple nutsedge, Cyperus rotundus)
# Summary of the method: as §1
# [15] = tested on: purslane (common purslane, Portulaca oleracea)
# Summary of the method: as §1
# [16] = tested on: ragweed (common ragweed, Ambrosia elatior)
# Summary of the method: as §1
# [17] = tested on: signalgrass (broadleaf signalgrass, Brachiaria platyphylla)
# Summary of the method: as §1
# [18] = tested on: spanishneedles (Bidens bipinnata)
# Summary of the method: as §1
# [19] = Postemergence, 31 g ai/ha, scale 0 to 100
# [20] = Postemergence, 62 g ai/ha, scale 0 to 100 (0 no effect, 100 complete control)
# [21] = Postemergence, 125 g ai/ha, scale 0 to 100 (0 no effect, 100 complete control)
# [22] = Postemergence, 16 g ai/ha, scale 0 to 100
# [23] = Preemergence, 16 g ai/ha, scale 0 to 100, 0 no effect, 100 complete control
# [24] = Preemergence, 31 g ai/ha, scale 0 to 100 (0 no effect, 100 complete control)
# [25] = Preemergence, 125 g ai/ha, scale 0 to 100
# [26] = Postemergence, 31 g ai/ha, scale 0 to 100 (0 no effect, 100 complete control)
# [27] = Preemergence, 62 g ai/ha, scale 0 to 100
# [28] = 125 g ai/ha, scale 0 to 100 (0 no effect, 100 complete control)
# [29] = Preemergence, rate not given, scale 0 to 100, 0 no effect, 100 complete control
structure (smiles),measurement,setting,value
COCCn1c(-c2ccccc2)ncc(C(=O)C2=C(O)CCCC2=O)c1=O [Compound 85],"Plant response rating, Ryegrass, Italian",[1]; [19],0
same,"Plant response rating, Ryegrass, Italian",[1]; [20],15
same,"Plant response rating, Ryegrass, Italian",[1]; [21],20
same,"Plant response rating, Ryegrass, Italian",[1]; [22],0
same,"Plant response rating, Ryegrass, Italian",[1]; [23],0
same,"Plant response rating, Ryegrass, Italian",[1]; [24],0
same,"Plant response rating, Ryegrass, Italian",[1]; [25],20
same,"Plant response rating, Surinam Grass",[2]; [19],75
same,"Plant response rating, Surinam Grass",[2]; [20],75
same,"Plant response rating, Surinam Grass",[2]; [21],85
same,"Plant response rating, Surinam Grass",[2]; [23],98
same,"Plant response rating, Surinam Grass",[2]; [24],100
same,"Plant response rating, Surinam Grass",[2]; [25],100
same,"Plant response rating, Barnyardgrass",[3]; [26],50
same,"Plant response rating, Barnyardgrass",[3]; [20],65
same,"Plant response rating, Barnyardgrass",[3]; [21],70
same,"Plant response rating, Barnyardgrass",[3]; [22],30
same,"Plant response rating, Barnyardgrass",[3]; [23],60
same,"Plant response rating, Barnyardgrass",[3]; [24],75
same,"Plant response rating, Barnyardgrass",[3]; [27],95
same,"Plant response rating, Barnyardgrass",[3]; [25],98
same,"Plant response rating, Black Mustard",[4]; [26],60
same,"Plant response rating, Black Mustard",[4]; [20],75
same,"Plant response rating, Black Mustard",[4]; [21],85
same,"Plant response rating, Black Mustard",[4]; [22],35
same,"Plant response rating, Black Mustard",[4]; [23],50
same,"Plant response rating, Black Mustard",[4]; [24],60
same,"Plant response rating, Black Mustard",[4]; [27],98
same,"Plant response rating, Black Mustard",[4]; [25],100
same,"Plant response rating, Chickweed",[5]; [19],80
same,"Plant response rating, Chickweed",[5]; [20],100
same,"Plant response rating, Chickweed",[5]; [21],100
same,"Plant response rating, Chickweed",[5]; [23],90
same,"Plant response rating, Chickweed",[5]; [24],100
same,"Plant response rating, Chickweed",[5]; [27],100
same,"Plant response rating, Chickweed",[5]; [25],100
same,"Plant response rating, Goosegrass",[6]; [19],65
same,"Plant response rating, Goosegrass",[6]; [20],75
same,"Plant response rating, Goosegrass",[6]; [21],75
same,"Plant response rating, Goosegrass",[6]; [22],40
same,"Plant response rating, Goosegrass",[6]; [23],65
same,"Plant response rating, Goosegrass",[6]; [24],75
same,"Plant response rating, Goosegrass",[6]; [27],75
same,"Plant response rating, Goosegrass",[6]; [25],98
same,"Plant response rating, Foxtail, Green",[7]; [19],25
same,"Plant response rating, Foxtail, Green",[7]; [20],35
same,"Plant response rating, Foxtail, Green",[7]; [21],65
same,"Plant response rating, Foxtail, Green",[7]; [22],20
same,"Plant response rating, Foxtail, Green",[7]; [23],0
same,"Plant response rating, Foxtail, Green",[7]; [24],5
same,"Plant response rating, Foxtail, Green",[7]; [27],40
same,"Plant response rating, Foxtail, Green",[7]; [25],70
same,"Plant response rating, Groundsel","[8]; 31 g ai/ha, scale 0 to 100",100
same,"Plant response rating, Groundsel","[8]; 62 g ai/ha, scale 0 to 100 (0 no effect, 100 complete control)",100
same,"Plant response rating, Groundsel",[8]; [28],100
same,"Plant response rating, Groundsel","[8]; 16 g ai/ha, scale 0 to 100",100
same,"Plant response rating, Guineagrass",[9]; [19],20
same,"Plant response rating, Guineagrass",[9]; [20],35
same,"Plant response rating, Guineagrass",[9]; [21],60
same,"Plant response rating, Guineagrass",[9]; [22],10
same,"Plant response rating, Guineagrass",[9]; [23],0
same,"Plant response rating, Guineagrass",[9]; [24],10
same,"Plant response rating, Guineagrass",[9]; [27],70
same,"Plant response rating, Guineagrass",[9]; [25],75
same,"Plant response rating, Johnsongrass",[10]; [19],50
same,"Plant response rating, Johnsongrass",[10]; [20],80
same,"Plant response rating, Johnsongrass",[10]; [21],80
same,"Plant response rating, Johnsongrass",[10]; [22],35
same,"Plant response rating, Johnsongrass",[10]; [23],50
same,"Plant response rating, Johnsongrass",[10]; [24],65
same,"Plant response rating, Johnsongrass",[10]; [27],80
same,"Plant response rating, Johnsongrass",[10]; [25],95
same,"Plant response rating, Kochia",[11]; [19],10
same,"Plant response rating, Kochia",[11]; [20],20
same,"Plant response rating, Kochia",[11]; [21],60
same,"Plant response rating, Kochia",[11]; [22],0
same,"Plant response rating, Kochia",[11]; [23],5
same,"Plant response rating, Kochia",[11]; [24],20
same,"Plant response rating, Kochia",[11]; [27],75
same,"Plant response rating, Kochia",[11]; [25],95
same,"Plant response rating, Crabgrass, Large",[12]; [19],60
same,"Plant response rating, Crabgrass, Large",[12]; [20],75
same,"Plant response rating, Crabgrass, Large",[12]; [21],75
same,"Plant response rating, Crabgrass, Large",[12]; [22],60
same,"Plant response rating, Crabgrass, Large",[12]; [23],95
same,"Plant response rating, Crabgrass, Large",[12]; [24],98
same,"Plant response rating, Crabgrass, Large",[12]; [27],100
same,"Plant response rating, Crabgrass, Large",[12]; [25],100
same,"Plant response rating, Morningglory",[13]; [19],70
same,"Plant response rating, Morningglory",[13]; [20],75
same,"Plant response rating, Morningglory",[13]; [21],90
same,"Plant response rating, Morningglory",[13]; [22],70
same,"Plant response rating, Morningglory",[13]; [24],70
same,"Plant response rating, Morningglory",[13]; [27],90
same,"Plant response rating, Morningglory",[13]; [25],100
same,"Plant response rating, Nutsedge, Purple",[14]; [19],30
same,"Plant response rating, Nutsedge, Purple",[14]; [20],50
same,"Plant response rating, Nutsedge, Purple",[14]; [21],65
same,"Plant response rating, Nutsedge, Purple",[14]; [22],5
same,"Plant response rating, Nutsedge, Purple",[14]; [23],70
same,"Plant response rating, Nutsedge, Purple",[14]; [24],75
same,"Plant response rating, Nutsedge, Purple",[14]; [27],95
same,"Plant response rating, Nutsedge, Purple",[14]; [25],95
same,"Plant response rating, Purslane",[15]; [19],80
same,"Plant response rating, Purslane",[15]; [20],90
same,"Plant response rating, Purslane",[15]; [21],90
same,"Plant response rating, Purslane",[15]; [22],75
same,"Plant response rating, Purslane",[15]; [23],80
same,"Plant response rating, Purslane",[15]; [24],100
same,"Plant response rating, Purslane",[15]; [27],100
same,"Plant response rating, Purslane",[15]; [25],100
same,"Plant response rating, Ragweed",[16]; [19],80
same,"Plant response rating, Ragweed",[16]; [20],80
same,"Plant response rating, Ragweed",[16]; [21],100
same,"Plant response rating, Ragweed",[16]; [22],80
same,"Plant response rating, Ragweed",[16]; [23],90
same,"Plant response rating, Ragweed",[16]; [24],95
same,"Plant response rating, Ragweed",[16]; [25],100
same,"Plant response rating, Ragweed",[16]; [29],100
same,"Plant response rating, Signalgrass",[17]; [19],35
same,"Plant response rating, Signalgrass",[17]; [20],60
same,"Plant response rating, Signalgrass",[17]; [21],75
same,"Plant response rating, Signalgrass",[17]; [22],20
same,"Plant response rating, Signalgrass",[17]; [23],5
same,"Plant response rating, Signalgrass",[17]; [24],60
same,"Plant response rating, Signalgrass",[17]; [25],95
same,"Plant response rating, Spanishneedles",[18]; [19],75
same,"Plant response rating, Spanishneedles",[18]; [20],90
same,"Plant response rating, Spanishneedles",[18]; [21],95
same,"Plant response rating, Spanishneedles",[18]; [22],75
same,"Plant response rating, Spanishneedles",[18]; [23],90
same,"Plant response rating, Spanishneedles",[18]; [24],98
same,"Plant response rating, Spanishneedles",[18]; [25],100
same,"Plant response rating, Spanishneedles",[18]; [29],98
COCCn1c(-c2ccsc2)ncc(C(=O)C2=C(O)C3CCC(C3)C2=O)c1=O (stereo not shown) [Compound 228],"Plant response rating, Ryegrass, Italian",[1]; [21],5
same,"Plant response rating, Surinam Grass",[2]; [21],70
same,"Plant response rating, Barnyardgrass",[3]; [26],20
same,"Plant response rating, Barnyardgrass",[3]; [21],80
same,"Plant response rating, Black Mustard",[4]; [26],20
same,"Plant response rating, Black Mustard",[4]; [21],50
same,"Plant response rating, Chickweed",[5]; [21],75
same,"Plant response rating, Goosegrass",[6]; [21],70
same,"Plant response rating, Foxtail, Green",[7]; [21],80
same,"Plant response rating, Groundsel",[8]; [28],100
same,"Plant response rating, Guineagrass",[9]; [21],15
same,"Plant response rating, Johnsongrass",[10]; [21],70
same,"Plant response rating, Kochia",[11]; [21],75
same,"Plant response rating, Crabgrass, Large",[12]; [21],75
same,"Plant response rating, Morningglory",[13]; [21],50
same,"Plant response rating, Nutsedge, Purple",[14]; [21],15
same,"Plant response rating, Purslane",[15]; [21],35
same,"Plant response rating, Ragweed",[16]; [21],75
same,"Plant response rating, Signalgrass",[17]; [21],20
same,"Plant response rating, Spanishneedles",[18]; [21],70
